# According to US8471005B2 (Cephalon, Inc., priority 2008, dated 2013):
# Read-outs that look alike come from different tables or passages of the source.
# Experiments:
# JAK2 = target: T1, JAK2 (Homo sapiens, UniProt O60674); assay: Recombinant Human JAK2 Kinase Assay (TRF); assay type: biochemical; details: read-out: JAK2 Potency
# T1 construct: host or cells: baculovirus expression system
# Summary of the method: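 Baculovirus-expressed JAK2 (15 ng/ml) phosphorylated a biotinylated 15-mer peptide captured on Neutravidin-coated plates, in 20 mM HEPES pH 7.2 with 0.2 μM ATP, 1 mM MnCl2, 0.1% BSA and 2.5% DMSO. Reaction ran 20 min at room temperature; phosphopeptide was detected by time-resolved fluorescence with Eu-N1-labelled PY100 antibody.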
# ALK = target: T2, ALK (Homo sapiens, UniProt Q9UM73); assay: ALK Kinase Assay (ELISA/TRF, PLC-γ substrate); assay type: biochemical; details: read-out: ALK Potency
# T2 construct: host or cells: baculovirus expression system
# Summary of the method: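 IC50 values derive from percent inhibition plotted against log10 compound concentration and fitted to a variable-slope sigmoidal equation. The underlying reaction used 30 ng/ml ALK acting on immobilized PLC-γ (10 μg/mL in TBS) at 37° C for 15 minutes, read with Eu-N1 PT66 antibody.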
# [1] = JAK2 kinase inhibition, 0.2 μM ATP
# [2] = ALK kinase inhibition, 1 μM ATP
# T2 sequence (Q9UM73 19-1620): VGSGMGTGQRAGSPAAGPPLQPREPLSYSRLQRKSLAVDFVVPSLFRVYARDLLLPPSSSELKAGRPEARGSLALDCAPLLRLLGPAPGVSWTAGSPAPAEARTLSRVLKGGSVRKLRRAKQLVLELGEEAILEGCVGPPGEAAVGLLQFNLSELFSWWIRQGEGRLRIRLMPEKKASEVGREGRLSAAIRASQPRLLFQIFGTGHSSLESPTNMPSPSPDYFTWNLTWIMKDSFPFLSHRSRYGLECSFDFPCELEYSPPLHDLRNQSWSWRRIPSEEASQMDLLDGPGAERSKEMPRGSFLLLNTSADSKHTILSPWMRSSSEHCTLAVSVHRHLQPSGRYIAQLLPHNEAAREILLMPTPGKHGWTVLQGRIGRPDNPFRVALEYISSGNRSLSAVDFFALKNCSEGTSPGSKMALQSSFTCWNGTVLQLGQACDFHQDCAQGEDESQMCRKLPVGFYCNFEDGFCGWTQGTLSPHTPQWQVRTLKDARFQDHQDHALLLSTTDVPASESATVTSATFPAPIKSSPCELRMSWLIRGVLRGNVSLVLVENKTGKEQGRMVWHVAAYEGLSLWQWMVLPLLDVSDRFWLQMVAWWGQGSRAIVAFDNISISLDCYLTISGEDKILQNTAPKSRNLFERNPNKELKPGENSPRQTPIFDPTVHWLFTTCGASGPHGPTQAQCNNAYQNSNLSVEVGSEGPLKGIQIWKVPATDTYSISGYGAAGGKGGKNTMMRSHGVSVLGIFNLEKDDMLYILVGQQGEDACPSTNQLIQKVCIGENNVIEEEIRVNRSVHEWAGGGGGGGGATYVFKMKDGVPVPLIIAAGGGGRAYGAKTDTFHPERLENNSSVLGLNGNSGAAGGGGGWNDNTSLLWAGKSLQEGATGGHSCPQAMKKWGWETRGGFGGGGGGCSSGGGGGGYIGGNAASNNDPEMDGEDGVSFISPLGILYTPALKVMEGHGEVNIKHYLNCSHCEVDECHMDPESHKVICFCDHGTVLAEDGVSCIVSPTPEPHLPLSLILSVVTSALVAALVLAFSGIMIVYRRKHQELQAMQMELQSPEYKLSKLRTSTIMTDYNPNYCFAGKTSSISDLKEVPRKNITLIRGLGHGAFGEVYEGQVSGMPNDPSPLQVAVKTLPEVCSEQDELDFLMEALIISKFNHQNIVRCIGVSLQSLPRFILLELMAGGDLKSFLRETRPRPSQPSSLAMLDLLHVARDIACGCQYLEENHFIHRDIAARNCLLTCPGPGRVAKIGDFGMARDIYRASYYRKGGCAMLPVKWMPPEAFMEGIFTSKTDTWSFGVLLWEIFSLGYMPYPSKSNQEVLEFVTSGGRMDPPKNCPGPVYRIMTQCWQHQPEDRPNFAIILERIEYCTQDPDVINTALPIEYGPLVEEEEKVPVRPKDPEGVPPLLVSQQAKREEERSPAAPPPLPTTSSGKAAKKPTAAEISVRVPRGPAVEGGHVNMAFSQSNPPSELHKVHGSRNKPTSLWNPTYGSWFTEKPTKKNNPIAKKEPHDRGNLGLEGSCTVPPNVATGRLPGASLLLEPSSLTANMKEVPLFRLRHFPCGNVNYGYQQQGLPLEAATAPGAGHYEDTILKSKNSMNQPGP
# T1 sequence (O60674 whole entry): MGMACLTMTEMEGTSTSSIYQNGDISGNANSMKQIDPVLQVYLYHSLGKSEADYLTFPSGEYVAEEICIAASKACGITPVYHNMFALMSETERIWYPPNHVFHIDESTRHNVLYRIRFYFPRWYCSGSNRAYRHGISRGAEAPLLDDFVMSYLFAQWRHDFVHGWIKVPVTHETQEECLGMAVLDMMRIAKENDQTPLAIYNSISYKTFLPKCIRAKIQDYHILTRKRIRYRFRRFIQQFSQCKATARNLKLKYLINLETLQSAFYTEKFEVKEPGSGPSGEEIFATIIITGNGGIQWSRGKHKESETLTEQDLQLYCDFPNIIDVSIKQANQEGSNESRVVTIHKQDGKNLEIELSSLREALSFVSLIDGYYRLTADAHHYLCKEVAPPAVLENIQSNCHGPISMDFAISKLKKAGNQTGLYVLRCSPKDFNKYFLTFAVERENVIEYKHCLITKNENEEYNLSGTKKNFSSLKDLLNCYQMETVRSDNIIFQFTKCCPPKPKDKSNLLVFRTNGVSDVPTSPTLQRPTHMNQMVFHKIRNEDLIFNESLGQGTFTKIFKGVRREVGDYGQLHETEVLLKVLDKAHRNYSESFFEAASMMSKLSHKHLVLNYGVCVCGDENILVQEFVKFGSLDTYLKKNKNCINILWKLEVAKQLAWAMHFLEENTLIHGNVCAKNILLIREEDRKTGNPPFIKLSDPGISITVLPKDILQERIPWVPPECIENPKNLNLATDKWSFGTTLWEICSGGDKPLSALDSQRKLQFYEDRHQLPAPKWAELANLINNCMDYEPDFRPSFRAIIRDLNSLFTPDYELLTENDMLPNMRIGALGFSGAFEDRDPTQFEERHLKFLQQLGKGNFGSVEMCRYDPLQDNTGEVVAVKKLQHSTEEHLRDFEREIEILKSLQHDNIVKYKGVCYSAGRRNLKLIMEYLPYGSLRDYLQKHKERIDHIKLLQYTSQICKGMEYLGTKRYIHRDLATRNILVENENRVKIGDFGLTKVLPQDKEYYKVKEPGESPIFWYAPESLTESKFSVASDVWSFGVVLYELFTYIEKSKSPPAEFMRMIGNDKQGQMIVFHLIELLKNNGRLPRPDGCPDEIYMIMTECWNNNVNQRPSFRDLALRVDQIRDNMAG
IC50 (JAK2; [1]) [nM],IC50 (ALK; [2]) [nM],IC50 (JAK2; JAK2 Kinase Inhibition) [nM],IC50 (ALK; ALK Kinase Inhibition) [nM],Compound
< 100,< 100,–,–,"COc1cc(N2CCN(C[C@H](C)O)CC2)ccc1Nc1ncc2ccc(-c3cccc4c3OCCO4)n2n1 [Example 547, (S)-1-(4-{4-[7-(2,3-Dihydro-1,4-benzodioxin-5-yl)-pyrrolo[2,1-f][1,2,4]triazin-2-ylamino]-3-methoxy-phenyl}-piperazin-1-yl)-propan-2-ol]"
< 100,> 10000,–,–,CN1CCN(c2ccc(Nc3ncc4cc(-c5ccncc5)cn4n3)cc2)CC1 [Example 1158]
< 100,1000 to 10000,–,–,"CN1CCN(c2ccc(Nc3ncc4ccc(-c5ccccc5CNCCS(C)(=O)=O)n4n3)cc2)CC1 [Example 1199, (7-{2-[(2-M ethanesulfonyl-ethylamino)-methyl]-phenyl}-pyrrolo[2,1-f][1,2,4]triazin-2-yl)-[4-(4-methyl-piperazin-1-yl)-phenyl]-amine]"
< 100,> 10000,–,–,"COc1ccc(-c2ccc3cnc(Nc4ccc5nc(C(F)(F)F)[nH]c5c4)nn23)cn1 [Example 1308, [7-(6-Methoxy-pyridin-3-yl)-pyrrolo[2,1-f][1,2,4]triazin-2-yl]-(2-trifluoromethyl-3H-benzimidazol-5-yl)-amine]"
< 100,100 to 1000,–,–,"CC(O)c1cccc(Nc2ncc3ccc(-c4cccc(S(=O)(=O)NC(C)(C)C)c4)n3n2)c1 (stereo not shown) [Example 569, N-tert-Butyl-3-{2-[3-(1-hydroxy-ethyl)-phenylamino]-pyrrolo[2,1-f][1,2,4]triazin-7-yl}-benzenesulfonamide]"
–,–,100 to 1000,> 10000,"c1cc(Nc2ncc3cccn3n2)cc(N2CCOCC2)c1 [Example 174, (3-Morpholin-4-yl-phenyl)-pyrrolo[2,1-f][1,2,4]triazin-2-yl-amine]"
< 100,1000 to 10000,–,–,"Cn1cc(-c2ccc3cnc(Nc4cccc(OCCN5CCOCC5)c4)nn23)cn1 [Example 1004, [7-(1-Methyl-1H-pyrazol-4-yl)-pyrrolo[2,1-f][1,2,4]triazin-2-yl]-[3-(2-morpholin-4-yl-ethoxy)-phenyl]-amine]"
–,–,< 100,100 to 1000,"CC1(C)CCC(=O)Nc2cc(Nc3ncc4ccc(-c5cccc(NS(C)(=O)=O)c5)n4n3)ccc21 [Example 381, N-{3-[2-(5,5-Dimethyl-2-oxo-2,3,4,5-tetrahydro-1H-1-benzazepin-8-ylamino)-pyrrolo[2,1-f][1,2,4]triazin-7-yl]-phenyl}-methanesulfonamide]"
–,–,< 100,1000 to 10000,"Cc1cc(Nc2ncc3ccc(-c4cccc(Cl)c4)n3n2)ccc1N1CCOCC1 [Example 66, [7-(3-Chloro-phenyl)-pyrrolo[2,1-f][1,2,4]triazin-2-yl]-(3-methyl-4-morpholin-4-yl-phenyl)-amine]"
–,–,100 to 1000,< 100,"COc1cc(N2CCC(C(=O)N3CCN(C)CC3)CC2)ccc1Nc1ncc2ccc(-c3ccccc3N(C)S(C)(=O)=O)n2n1 [Example 459, N-[2-(2-{2-Methoxy-4-[4-(4-methyl-piperazine-1-carbonyl)-piperidin1-yl]-phenylamino}-pyrrolo[2,1-f][1,2,4]triazin-7-yl)-phenyl]-N-methyl-methanesulfonamide]"
–,–,< 100,1000 to 10000,"COc1ccc(-c2ccc3cnc(Nc4ccc5c(c4)CC(=O)N5C)nn23)cn1 [Example 384, 5-[7-(6-Methoxy-pyridin-3-yl)-pyrrolo[2,1-f][1,2,4]triazin-2-ylamino]-1-methyl-1,3-dihydro-indol-2-one]"
–,–,> 10000,> 10000,"Oc1ccc(-c2ccc3cnc(Nc4cccc(N5CCOCC5)c4)nn23)cn1 [Example 332, 5-[2-(3-Morpholin-4-yl-phenylamino)-pyrrolo[2,1-f][1,2,4]triazin-7-yl]-pyridin-2-ol]"
100 to 1000,< 100,–,–,"COc1cc(C2CCN(Cc3ncc[nH]3)CC2)ccc1Nc1ncc2ccc(-c3ccccc3OC)n2n1 [Example 868, {4-[1-(1H-Imidazol-2-ylmethyl)-piperidin-4-yl]-2-methoxy-phenyl}-[7-(2-methoxy-phenyl)-pyrrolo[2,1-f][1,2,4]triazin-2-yl]-amine]"
< 100,100 to 1000,–,–,"COc1ccccc1-c1ccc2cnc(Nc3ccc(N4CCN(C)CC4)nc3)nn12 [Example 1108, [7-(2-Methoxy-phenyl)-pyrrolo[2,1-f][1,2,4]triazin-2-yl]-[6-(4-methyl-piperazin-1-yl)-pyridin-3-yl]-amine]"
–,–,< 100,1000 to 10000,"CS(=O)(=O)c1cccc(-c2ccc3cnc(Nc4ccc5[nH]c(CN6CCOCC6)nc5c4)nn23)c1 [Example 1537, [7-(3-Methanesulfonyl-phenyl)-pyrrolo[2,1-f][1,2,4]triazin-2-yl]-(2-morpholin-4-ylmethyl-1H-benzimidazol-5-yl)-amine]"
1000 to 10000,100 to 1000,–,–,"COc1cc(C2(NC(=O)C(F)(F)F)CCC2)ccc1Nc1ncc2ccc(-c3ccccc3N(C)S(C)(=O)=O)n2n1 [Example 1254, 2,2,2-Trifluoro-N-[1-(4-{7-[2-(methanesulfonyl-methyl-amino)-phenyl]-pyrrolo[2,1-f][1,2,4]triazin-2-ylamino}-3-methoxy-phenyl)-cyclobutyl]-acetamide]"
< 100,< 100,–,–,"COc1cc(N2CCC(N3CCCOCC3)CC2)ccc1Nc1ncc2ccc(-c3ccccc3OC)n2n1 [Example 780, [2-Methoxy-4-(4-[1,4]oxazepan-4-yl-piperidin-1-yl)-phenyl]-[7-(2-methoxy-phenyl)-pyrrolo[2,1-f][1,2,4]triazin-2-yl]-amine]"
< 100,1000 to 10000,–,–,"Cc1nc2cc(Nc3ncc4ccc(-c5cccc(S(C)(=O)=O)c5)n4n3)ccc2o1 [Example 599, [7-(3-Methanesulfonyl-phenyl)-pyrrolo[2,1-f][1,2,4]triazin-2-yl]-(2-methyl-benzoxazol-5-yl)-amine]"
< 100,100 to 1000,–,–,"CN1CCOc2ccc(Nc3ncc4ccc(-c5cccc(S(=O)(=O)NC(C)(C)C)c5)n4n3)cc21 [Example 650, N-tert-Butyl-3-[2-(4-methyl-3,4-dihydro-2H-benzo[1,4]oxazin-6-ylamino)-pyrrolo[2,1-f][1,2,4]triazin-7-yl]-benzenesulfonamide]"
–,–,< 100,100 to 1000,"CN1CCN(c2ccc(Nc3ncc4ccc(-c5ccccc5[S+](C)[O-])n4n3)cc2)CC1 (stereo not shown) [Example 404, [7-(2-Methanesulfinyl-phenyl)-pyrrolo[2,1-f][1,2,4]triazin-2-yl]-[4-(4-methyl-piperazin-1-yl)-phenyl]-amine]"
–,–,< 100,100 to 1000,"Cc1cc(-c2ccc(S(C)(=O)=O)cc2)n2nc(Nc3ccc(N4CCN(C)CC4)cc3)ncc12 [Example 108, [7-(4-Methanesulfonyl-phenyl)-5-methyl-pyrrolo[2,1-f][1,2,4]triazin-2-yl]-[4-(4-methyl-piperazin-1-yl)-phenyl]-amine]"
< 100,100 to 1000,–,–,"N#CCCn1cc(-c2ccc3cnc(Nc4ccc(C5CCN(CC(N)=O)CC5)cc4)nn23)cn1 [Example 933, 2-[4-(4-{7-[1-(2-Cyano-ethyl)-1H-pyrazol-4-yl]-pyrrolo[2,1-f][1,2,4]triazin-2-ylamino}-phenyl)-piperidin-1-yl]-acetamide]"

Compound,IC50 (JAK2; [1]) [nM],IC50 (ALK; [2]) [nM],IC50 (JAK2; JAK2 Kinase Inhibition) [nM],IC50 (ALK; ALK Kinase Inhibition) [nM]
"(±)-1-Fluoro-3-(4-{3-methoxy-4-[7-(2-methoxy-phenyl)-pyrrolo[2,1-f][1,2,4]triazin-2-ylamino]-phenyl}-piperidin-1-yl)-propan-2-ol [Example 825]",100 to 1000,< 100,–,–
